Results: patent publication US20110253135A1, “METAL COORDINATION COMPLEXES OF VOLATILE DRUGS” (ALEXZA PHARMACEUTICALS, INC., priority 2008, published 2011)
Where two headings read alike, the source gives them in different places.

Assays:
[1] = 25° C.; cited from earlier work
[2] = Drug aerosol from percussively ignited heat package: purity and recovered yield by HPLC; type: physicochemical

**Q.** With `CN1CCCC1c1cccnc1` (stereo not shown) [Nicotine, nicotine] as the molecule, how does the vapor pressure [1] read?
**A.** 0.0425 mmHg

**Q.** For `Cc1nnc2n1-c1ccc(Cl)cc1C(c1ccccc1)=NC2` [alprazolam], which “purity of the resultant aerosol” value [2] is on record?
**A.** 96.8%

**Q.** And the “recovered yield of aerosol” value [2]?
**A.** 100%

**Q.** Which “purity of the resultant aerosol” value ([2]; percussively ignited heat package, greater than 800° C., air flow 20 L/min, film 1.58 μm alprazolam, 6.33 μm pramipexole, 2.53 μm ciclesonide) does the source give for `CC(C)C(=O)OCC(=O)[C@@]12O[C@H](C3CCCCC3)O[C@@H]1C[C@H]1[C@@H]3CCC4=CC(=O)C=C[C@]4(C)[C@H]3[C@@H](O)C[C@@]12C` [ciclesonide] here?
**A.** 85.6%
